One data set deals with T1, CCR5 (Homo sapiens, UniProt P51681).
T1 construct: expressed in transfected cells; host or cells: HeLa-C14
Description: HeLa-C14:JRFL CD4-dependent cell-cell fusion assay. The format is cell-based. The conditions noted are these: luciferase readout, in words. From the text:
Cell-cell fusion assays measure specifically co-receptor mediated inhibition of gp120-induced fusion in the absence of other viral machinery, and these assays were used to explore the CCR5- and CXCR4-specific antiviral activity. A cell-cell fusion assay was constructed to simulate HIV-1 entry in the absence of other viral machinery. The assay measured fusion of effector cells expressing the JRFL envelope (CCR5-tropic/CD4 dependent) with HeLa-C14 target cells (expressing CD4, CCR5, and CXCR4) using a luciferase readout (FIG. 5A).

Data set [1] deals with HIV-1 reverse transcriptase (Human immunodeficiency virus type 1 group M subtype B, UniProt P03366). Description: biochemical. The format is biochemical. The settings on record: for IC50: read-out: RT IC50.
Another data set has as its system HIV-1 Ba-L. Description: HIV-1 MAGI assay, Ba-L (CCR5 / M-tropic). It is filed as cell-based. The conditions noted are these: Human immunodeficiency virus 1, BAL. As for the experimental part: (§1) Bayesian statistical models were constructed using known CXCR4 and CCR5 active compounds from literature, and these models were used to virtually screen 5 million compounds in the Aldrich Marketplace Select library. The screen yielded 14 compounds of interest that were then tested for their anti-HIV activity for both tropisms in MAGI assay. Two compounds (FIG. 1, compounds 1 and 2) were active against both T and M tropic forms of HIV with IC50 values of ˜20 μM. These initial hits were followed-up by a second round of virtual screening based on similarity and sub-structure searching. Another 24 compounds were purchased from the same database and tested. […] This compound was then subjected to a series of biological evaluations to determine activity profile and confirm mechanism of action.

Another data set deals with HIV-1 IIIB. Description: HIV-1 MAGI assay, IIIB (CXCR4 / T-tropic). It is filed as cell-based. As to the method:
as §1

The next data set in a line: MAGI toxicity. The settings on record: human, MAGI cells, TC50, table of synthesized compounds.
The next data set has as its target CXCR4 (Homo sapiens, UniProt P61073). Description: Nef-M1:CXCR4 induced mitochondrial membrane depolarization (MMD) inhibition in Jurkat cells. Set-up: endogenous in cells; host or cells: Jurkat. The format is cell-based. The settings on record: in words.
Setting [2] is: Table 3, read-out: MAGI Assay IC50 CCR5.
The mark [3] stands for this setting: Human immunodeficiency virus 1, IIIB, MAGI, Table 3, read-out: MAGI Assay IC50 CXCR4.
Setting [4] is: table of synthesized compounds, read-out: R5-IC50.
The mark [5] stands for this setting: Human immunodeficiency virus 1, IIIB, MAGI, table of synthesized compounds, read-out: X4-IC50.

Like-named read-outs stand apart in the source and are kept apart here. Some results are limits rather than exact numbers.

CXCR4, sequence (P61073 whole entry): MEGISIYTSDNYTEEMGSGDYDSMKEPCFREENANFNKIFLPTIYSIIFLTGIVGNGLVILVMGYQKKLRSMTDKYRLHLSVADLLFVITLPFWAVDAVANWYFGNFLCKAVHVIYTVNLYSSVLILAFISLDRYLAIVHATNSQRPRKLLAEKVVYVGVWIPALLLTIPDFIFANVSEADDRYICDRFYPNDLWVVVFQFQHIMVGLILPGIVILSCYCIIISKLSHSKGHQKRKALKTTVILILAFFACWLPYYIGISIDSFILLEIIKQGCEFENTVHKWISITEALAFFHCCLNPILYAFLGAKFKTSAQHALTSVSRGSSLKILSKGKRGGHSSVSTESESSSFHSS
T1 sequence (P51681 whole entry): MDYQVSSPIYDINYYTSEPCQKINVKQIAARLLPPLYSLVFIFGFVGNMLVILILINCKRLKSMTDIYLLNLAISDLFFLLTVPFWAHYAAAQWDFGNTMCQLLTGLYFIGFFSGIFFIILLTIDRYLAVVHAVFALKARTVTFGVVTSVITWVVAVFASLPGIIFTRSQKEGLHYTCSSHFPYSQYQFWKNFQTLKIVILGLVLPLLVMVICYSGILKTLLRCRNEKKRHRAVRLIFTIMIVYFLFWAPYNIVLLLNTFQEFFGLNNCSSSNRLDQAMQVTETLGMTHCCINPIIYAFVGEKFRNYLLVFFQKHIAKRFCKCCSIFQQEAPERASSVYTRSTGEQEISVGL

`Cc1ccc(-c2ccc3c(c2)C=C(C(=O)Nc2ccc(C[N+](C)(C)C4CCOCC4)cc2)CCC3)cc1.[Cl-]` [TAK-779, reference compound]: on CCR5, the “inhibition of JRFL envelope / HeLa-C14 cell-cell fusion” value was “inhibited fusion”.
Broadly, the IC50 is the midpoint of a concentration-inhibition curve. Consider `Clc1cnccc1CN1CCC(c2[nH]ncc2Cc2ccccc2)CC1` [drawing 40], for which the IC50 in data set [1] (Table 3) came to 10 µM; in the data set on HIV-1 Ba-L (setting [2]) it was 0.2 µM; in the data set with HIV-1 IIIB (setting [3]) it was 0.1 µM.
For the molecule `CS(=O)(=O)c1cc(CN2CCC(c3[nH]ncc3Cc3ccccc3)CC2)ccn1`, the values for the IC50 (in data set [1] (Table 3); in the data set on HIV-1 Ba-L (setting [2]); in the data set with HIV-1 IIIB (setting [3])) were 4 µM, 0.6 µM and 0.4 µM, respectively.
With `Clc1ccc(Cc2nc(CN3CCN(Cc4ccccn4)CC3)cs2)cc1` [Compound 1], the IC50 in the data set on HIV-1 Ba-L (MAGI, value stated for both tropisms, read-out: IC50 against M tropic HIV in MAGI assay) was about 20 µM; with HIV-1 IIIB (Human immunodeficiency virus 1, IIIB, MAGI, value stated for both tropisms, read-out: IC50 against T tropic HIV in MAGI assay), about 20 µM.
For the molecule `c1ccc(Cc2cn[nH]c2C2CCN(Cc3ccncn3)CC2)cc1`, the IC50 in data set [1] (Table 3) was 146 µM; in the data set with HIV-1 Ba-L (setting [2]) it was 20 µM; with HIV-1 IIIB (setting [3]), over 100 µM.
In the same order, the values of `Clc1cc(CN2CCC(c3[nH]ncc3Cc3ccccc3)CC2)ccn1` [drawing 41] are 10 µM, 0.3 µM and 0.2 µM.
On to `c1ccc(Cc2cn[nH]c2C2CCN(Cc3ccnc4ccccc34)CC2)cc1`, for which the IC50 in data set [1] (Table 3) amounted to 3 µM; in the data set on HIV-1 Ba-L (setting [2]), 0.8 µM; in the data set with HIV-1 IIIB (setting [3]), 1 µM.
In the case of `Fc1cc(CN2CCC(c3[nH]ncc3Cc3ccccc3)CC2)ccn1`, the results for the IC50 (in data set [1] (Table 3); in the data set with HIV-1 Ba-L (setting [2]); with HIV-1 IIIB (setting [3])) were 10 µM, 10 µM and over 10 µM, respectively.
As usually defined, the CC50 is the concentration that lowers cell viability or growth by half. As to `FC(F)(F)c1ccc(CN2CCC(c3[nH]ncc3Cc3ccccc3)CC2)cc1` [4-(4-benzyl-1H-pyrazol-3-yl)-1-(4 (trifluoromethyl)benzyl)piperidine], in the data set “MAGI toxicity”, the CC50 was 18 µM. For the same molecule, the results for the IC50 in the data set on HIV-1 Ba-L (setting [4]) and in the data set with HIV-1 IIIB (setting [5]) were 9.72 µM and 13.2 µM, respectively.
Molecule `Clc1cc(CN2CCC(c3[nH]ncc3Cc3ccccc3)CC2)ccn1` [drawing 93, 4-((4-(4-benzyl-1H-pyrazol-3-yl)piperidin-1-yl)methyl)-2-chloropyridine] came in with a CC50 in the data set “MAGI toxicity” of 34 µM. In addition, the IC50 with HIV-1 Ba-L (setting [4]) was found to be 0.17 µM; in the data set on HIV-1 IIIB (setting [5]), 0.28 µM.
Regarding `CN(C)c1ccc(CN2CCC(c3[nH]ncc3Cc3ccccc3)CC2)cc1`, in data set [1] (Table 3), the “RT IC50” value is “inactive”. In addition, the IC50 in the data set with HIV-1 Ba-L (setting [2]) is 5 µM. Further, the “MAGI Assay IC50 CXCR4” value with HIV-1 IIIB (Table 3) is “inactive”.
The molecule `c1ccc(Cc2cn[nH]c2C2CCN(Cc3ccccn3)CC2)cc1` [2-((4-(4-benzyl-1H-pyrazol-3-yl)piperidin-1-yl)methyl)pyridine] displayed a CC50 in “MAGI toxicity” of over 100 µM. Further, the IC50 in the data set on HIV-1 Ba-L (setting [4]) came out at 16.7 µM; with HIV-1 IIIB (setting [5]), 24.8 µM.
In turn, `c1ccc(Cc2cn[nH]c2C2CCN(Cc3ccccc3)CC2)cc1` [1-benzyl-4-(4-benzyl-1H-pyrazol-3-yl)piperidine] gave a CC50 in the data set “MAGI toxicity” of over 100 µM. Besides, the figures for the IC50 in the data set on HIV-1 Ba-L (setting [4]) and in the data set with HIV-1 IIIB (setting [5]) were 18.1 µM and 13 µM, respectively.
`COc1cccc(CN2CCC(c3[nH]ncc3Cc3ccccc3)CC2)c1Cl`: the results for the IC50 (in data set [1] (Table 3); in the data set on HIV-1 Ba-L (setting [2]); in the data set with HIV-1 IIIB (setting [3])) were 1.5 µM, 1 µM and 2 µM, respectively.
Take `c1cc(CN2CCCNCCNCCCNCC2)ccc1CN1CCCNCCNCCCNCC1` [AMD3100]: the “inhibition of Nef-M1 induced MMD” value at CXCR4 is given as “inhibited”.
Turning to `c1ccc(Cc2cn[nH]c2C2CCN(Cc3cccc4ccccc34)CC2)cc1` [drawing 49], the IC50 in data set [1] (Table 3) is 20 µM; in the data set with HIV-1 Ba-L (setting [2]) it was 8 µM; in the data set with HIV-1 IIIB (setting [3]), 7 µM.
In the same order, the values of `Clc1nccc(CN2CCC(c3[nH]ncc3Cc3ccccc3)CC2)c1Cl` are 4 µM, 0.8 µM and 1.5 µM.
As for maraviroc, the “inhibition of Nef-M1 induced MMD” value on CXCR4 was “inactive”.
With `c1ccc(Cc2cn[nH]c2C2CCN(Cc3cccc4ccccc34)CC2)cc1` [drawing 86, 4-(4-benzyl-1H-pyrazol-3-yl)-1-(naphthalen-1-ylmethyl)piperidine], the midpoint of cytotoxicity in “MAGI toxicity”, the CC50, lay at 17.9 µM. Further, the IC50 was determined as 7.63 µM in the data set with HIV-1 Ba-L (setting [4]) and 6.79 µM with HIV-1 IIIB (setting [5]).
With `Cc1n[nH]c(C2CCN(Cc3ccncc3Cl)CC2)c1Cc1ccccc1`, the activity at 100 µM in data set [1] (@ 100 uM, read-out: % Activity of RT) stood at 4%. Further, the inhibition at 1 µM worked out at 92% in the data set on HIV-1 Ba-L (@ 1 uM, read-out: MAGI Assay % inhib CCR5) and 79% in the data set with HIV-1 IIIB (Human immunodeficiency virus 1, IIIB, MAGI, @ 1 uM, read-out: MAGI Assay % inhib CXCR4).
`Clc1cnccc1CN1CCC(c2[nH]ncc2Cc2ccccc2)CC1` [drawing 92, 4-((4-(4-benzyl-1H-pyrazol-3-yl)piperidin-1-yl)methyl)-3-chloropyridine] registered a CC50 in the data set “MAGI toxicity” of 67 µM. For the same molecule, the IC50 was 0.14 µM in the data set with HIV-1 Ba-L (setting [4]) and 0.21 µM in the data set on HIV-1 IIIB (setting [5]).
`[O-][n+]1ccc(CN2CCC(c3[nH]ncc3Cc3ccccc3)CC2)cc1`: the IC50 (in data set [1] (Table 3); in the data set on HIV-1 Ba-L (setting [2]); with HIV-1 IIIB (setting [3])) was over 100 µM each time.
In “MAGI toxicity”, `Clc1ccc(CN2CCC(c3[nH]ncc3Cc3ccccc3)CC2)cc1` [4-(4-benzyl-1H-pyrazol-3-yl)-1-(4-chlorobenzyl)piperidine] displayed a CC50 of 18.6 µM. For the same molecule, the values for the IC50 in the data set on HIV-1 Ba-L (setting [4]) and with HIV-1 IIIB (setting [5]) were 5.61 µM and 5.33 µM, respectively.
In the case of `N#Cc1ccc(CN2CCC(c3[nH]ncc3Cc3ccccc3)CC2)nc1`, the values for the IC50 (in data set [1] (Table 3); with HIV-1 Ba-L (setting [2]); in the data set on HIV-1 IIIB (setting [3])) were 211 µM, 43 µM and over 100 µM, respectively.
On to `Cc1cn([C@H]2C[C@H](N=[N+]=[N-])[C@@H](CO)O2)c(=O)[nH]c1=O` [AZT], for which the “inhibition of Nef-M1 induced MMD” value on CXCR4 is “inactive”.
In “MAGI toxicity”, `c1ccc(Cc2cn[nH]c2C2CCN(Cc3ccc4ccccc4c3)CC2)cc1` [drawing 85, 4-(4-benzyl-1H-pyrazol-3-yl)-1-(naphthalen-2-ylmethyl)piperidine] showed a CC50 of 16.8 µM. Further, the IC50 with HIV-1 Ba-L (setting [4]) came to 4.47 µM; in the data set on HIV-1 IIIB (setting [5]), 4.03 µM.
As to `CS(=O)(=O)c1ccc(CN2CCC(c3[nH]ncc3Cc3ccccc3)CC2)cc1` [4-(4-benzyl-1H-pyrazol-3-yl)-1-(4-(methylsulfonyl)benzyl)piperidine], the CC50 in the data set “MAGI toxicity” was over 100 µM. Besides, the half-inhibitory concentration (IC50) was found to be 2 µM in the data set on HIV-1 Ba-L (setting [4]) and 1 µM with HIV-1 IIIB (setting [5]).
Regarding `c1ccc(Cc2cn[nH]c2C2CCN(Cc3ccc4ccccc4c3)CC2)cc1` [drawing 50], the IC50 in data set [1] (Table 3) amounted to 23 µM; in the data set on HIV-1 Ba-L (setting [2]) it was 4 µM; in the data set with HIV-1 IIIB (setting [3]) it was 4 µM.
Consider `N#Cc1ccc(CN2CCC(c3[nH]ncc3Cc3ccccc3)CC2)cc1` [4-((4-(4-benzyl-1H-pyrazol-3-yl)piperidin-1-yl)methyl)benzonitrile], for which the CC50 in “MAGI toxicity” worked out at 60 µM. For the same molecule, the IC50 in the data set on HIV-1 Ba-L (setting [4]) was determined as 8.52 µM; in the data set on HIV-1 IIIB (setting [5]), 5.3 µM.
As for `c1ccc(Cc2cn[nH]c2C2CCN(CC3CCCCC3)CC2)cc1` [4-(4-benzyl-1H-pyrazol-3-yl)-1-(cyclohexylmethyl)piperidine], in the data set “MAGI toxicity”, the CC50 is 142 µM. In addition, the IC50 with HIV-1 Ba-L (setting [4]) was 49.4 µM; in the data set with HIV-1 IIIB (setting [5]), 58.5 µM.
The molecule `c1ccc(CCCC2CCN(Cc3ccccn3)CC2)cc1` came in with a CC50 in “MAGI toxicity” of over 100 µM. Further, the IC50 in the data set on HIV-1 Ba-L (setting [4]) came to 73.5 µM; in the data set with HIV-1 IIIB (setting [5]), 137 µM.

These data come from patent US10450293B2, “Chemokine CXCR4 and CCR5 receptor modulators and uses related thereto” (Emory University, priority 2014, dated 2019).
